Reference: US12239621B2, “Prevention of kidney injury induced by hemolytic reaction” (Niigata University, priority 2021, dated 2025)

Columns and labels:
mice (C57BL/6) = conditions: cilastatin sodium 400 mg/kg i.p.
Protocol: Cilastatin was administered to mice and changes in concentrations of each ligand in urine were observed.
Five mice (male, aged 12 weeks C57BL/6) were intraperitoneally administered with 400 mg/kg (diluted in 100 μL, of normal saline, cilastatin-treated group) of cilastatin sodium (Sigma-Aldrich Japan K.K., C5743), and then put in a metabolic cage for 3 hours to collect urine, and the urines of 5 mice were combined. Additionally, 100 μL, of normal saline was administered to another group of 5 mice (control group), and the same experiment as above was conducted.
Proteins were isolated from the obtained urine samples by electrophoresis (SDS-polyacrylamide gel), reductively alkylated (using dithiothreitol and iodoacetamide), digested with trypsin, and the obtained peptides were extracted to obtain a solid.
To the obtained solid, 15 μL, of 0.3% formic acid (FA) was added, shaken for 5 minutes, sonicated for 1 minute, and shaken again for 5 minutes. The resultant mixture was spun down, applied to a membrane filter having a pore diameter of 0.45 μm (ULtra free-MC, HV, 0.45 μm, Millipore), centrifuged at 10,000 rpm for 5 minutes, and the sample passed through the filter was subjected to LCMS analysis.
The analysis method described in Ohara et al., 2018, PLoS One, vol. 13, 1, e0204160 was referred to. The analysis method is shown below.
AnaLyst® TF1.6 (AB SCIEX) was used as an LCMS/MS data acquisition and analysis software, and the obtained raw data were converted to a peak list file (mgf file format), whereby MS/MS Ion Search (MIS search) was conducted using Matrix Science Mascot daemon, Mascot server 2.2.1. The sequence data base used was Uniprot, Swiss-Prot. Significance threshold was set to 0.05 (false discovery rate of less than 5%), and the proteins having 2 or more peptides exceeding the identification standard were listed as identified proteins.
Raw data were acquired 2 times per sample at LCMS to cover the issue of analysis reproducibility at LCMS, and the peak list files obtained from the 2 runs were combined and analyzed using Mascot (Ohara et al., 2018, PLoS One, vol. 13, 1, e0204160).
To the proteins identified in common in 2 groups when compared, the spectral count method was used, which is a label-free comparative, semiquantitative analysis method utilizing a principle that a large number of peptide fragments will be identified in those expressed at high levels, resulting in the increase in the number of MS/MS. In other words, the proteins identified in both of the cilastatin-treated group and control group were calculated for an SpC/L ratio (spectral abundance factor: SAF) of the cilastatin-treated group/control group, and the proteins having an SpC/L ratio of 2.0 or more were listed as the proteins abundant in urine of the cilastatin-treated group.

hemolysis model mice [1] = conditions: cilastatin 400 mg/kg i.p. at 0, 3 and 6 h after phenylhydrazine, kidneys at 24 h, immunostaining (FIG. 7)
Protocol: (§1) In line with Test Example 1, 1 mg/10 g of phenylhydrazine was given to C57BL/6 (male, aged 10-12 weeks), thereby constructing hemolysis model mice.
(§2) To the hemolysis models, a) 400 mg/kg (diluted in 100 μL, of normal saline) of cilastatin (Sigma-Aldrich Inc.), or b) 100 μL, of normal saline was intraperitoneally administered at the time of phenylhydrazine dosing, 3 hours after the dosing, and 6 hours after the dosing.
In the present test example, thinly sliced fixed samples obtained from the remaining right kidney of the same animal were immunostained (500-fold diluted) using an anti-α1M antibody (Gene Tex: GTX101068).

[2] = target: binding between megalin and hemoglobin (Rattus norvegicus, UniProt P98158); conditions: QCM, 1 mg cilastatin injected into 200 μL buffer in advance, rat hemoglobin (FIG. 2-1)
Chain of binding between megalin and hemoglobin (P98158 26-4660): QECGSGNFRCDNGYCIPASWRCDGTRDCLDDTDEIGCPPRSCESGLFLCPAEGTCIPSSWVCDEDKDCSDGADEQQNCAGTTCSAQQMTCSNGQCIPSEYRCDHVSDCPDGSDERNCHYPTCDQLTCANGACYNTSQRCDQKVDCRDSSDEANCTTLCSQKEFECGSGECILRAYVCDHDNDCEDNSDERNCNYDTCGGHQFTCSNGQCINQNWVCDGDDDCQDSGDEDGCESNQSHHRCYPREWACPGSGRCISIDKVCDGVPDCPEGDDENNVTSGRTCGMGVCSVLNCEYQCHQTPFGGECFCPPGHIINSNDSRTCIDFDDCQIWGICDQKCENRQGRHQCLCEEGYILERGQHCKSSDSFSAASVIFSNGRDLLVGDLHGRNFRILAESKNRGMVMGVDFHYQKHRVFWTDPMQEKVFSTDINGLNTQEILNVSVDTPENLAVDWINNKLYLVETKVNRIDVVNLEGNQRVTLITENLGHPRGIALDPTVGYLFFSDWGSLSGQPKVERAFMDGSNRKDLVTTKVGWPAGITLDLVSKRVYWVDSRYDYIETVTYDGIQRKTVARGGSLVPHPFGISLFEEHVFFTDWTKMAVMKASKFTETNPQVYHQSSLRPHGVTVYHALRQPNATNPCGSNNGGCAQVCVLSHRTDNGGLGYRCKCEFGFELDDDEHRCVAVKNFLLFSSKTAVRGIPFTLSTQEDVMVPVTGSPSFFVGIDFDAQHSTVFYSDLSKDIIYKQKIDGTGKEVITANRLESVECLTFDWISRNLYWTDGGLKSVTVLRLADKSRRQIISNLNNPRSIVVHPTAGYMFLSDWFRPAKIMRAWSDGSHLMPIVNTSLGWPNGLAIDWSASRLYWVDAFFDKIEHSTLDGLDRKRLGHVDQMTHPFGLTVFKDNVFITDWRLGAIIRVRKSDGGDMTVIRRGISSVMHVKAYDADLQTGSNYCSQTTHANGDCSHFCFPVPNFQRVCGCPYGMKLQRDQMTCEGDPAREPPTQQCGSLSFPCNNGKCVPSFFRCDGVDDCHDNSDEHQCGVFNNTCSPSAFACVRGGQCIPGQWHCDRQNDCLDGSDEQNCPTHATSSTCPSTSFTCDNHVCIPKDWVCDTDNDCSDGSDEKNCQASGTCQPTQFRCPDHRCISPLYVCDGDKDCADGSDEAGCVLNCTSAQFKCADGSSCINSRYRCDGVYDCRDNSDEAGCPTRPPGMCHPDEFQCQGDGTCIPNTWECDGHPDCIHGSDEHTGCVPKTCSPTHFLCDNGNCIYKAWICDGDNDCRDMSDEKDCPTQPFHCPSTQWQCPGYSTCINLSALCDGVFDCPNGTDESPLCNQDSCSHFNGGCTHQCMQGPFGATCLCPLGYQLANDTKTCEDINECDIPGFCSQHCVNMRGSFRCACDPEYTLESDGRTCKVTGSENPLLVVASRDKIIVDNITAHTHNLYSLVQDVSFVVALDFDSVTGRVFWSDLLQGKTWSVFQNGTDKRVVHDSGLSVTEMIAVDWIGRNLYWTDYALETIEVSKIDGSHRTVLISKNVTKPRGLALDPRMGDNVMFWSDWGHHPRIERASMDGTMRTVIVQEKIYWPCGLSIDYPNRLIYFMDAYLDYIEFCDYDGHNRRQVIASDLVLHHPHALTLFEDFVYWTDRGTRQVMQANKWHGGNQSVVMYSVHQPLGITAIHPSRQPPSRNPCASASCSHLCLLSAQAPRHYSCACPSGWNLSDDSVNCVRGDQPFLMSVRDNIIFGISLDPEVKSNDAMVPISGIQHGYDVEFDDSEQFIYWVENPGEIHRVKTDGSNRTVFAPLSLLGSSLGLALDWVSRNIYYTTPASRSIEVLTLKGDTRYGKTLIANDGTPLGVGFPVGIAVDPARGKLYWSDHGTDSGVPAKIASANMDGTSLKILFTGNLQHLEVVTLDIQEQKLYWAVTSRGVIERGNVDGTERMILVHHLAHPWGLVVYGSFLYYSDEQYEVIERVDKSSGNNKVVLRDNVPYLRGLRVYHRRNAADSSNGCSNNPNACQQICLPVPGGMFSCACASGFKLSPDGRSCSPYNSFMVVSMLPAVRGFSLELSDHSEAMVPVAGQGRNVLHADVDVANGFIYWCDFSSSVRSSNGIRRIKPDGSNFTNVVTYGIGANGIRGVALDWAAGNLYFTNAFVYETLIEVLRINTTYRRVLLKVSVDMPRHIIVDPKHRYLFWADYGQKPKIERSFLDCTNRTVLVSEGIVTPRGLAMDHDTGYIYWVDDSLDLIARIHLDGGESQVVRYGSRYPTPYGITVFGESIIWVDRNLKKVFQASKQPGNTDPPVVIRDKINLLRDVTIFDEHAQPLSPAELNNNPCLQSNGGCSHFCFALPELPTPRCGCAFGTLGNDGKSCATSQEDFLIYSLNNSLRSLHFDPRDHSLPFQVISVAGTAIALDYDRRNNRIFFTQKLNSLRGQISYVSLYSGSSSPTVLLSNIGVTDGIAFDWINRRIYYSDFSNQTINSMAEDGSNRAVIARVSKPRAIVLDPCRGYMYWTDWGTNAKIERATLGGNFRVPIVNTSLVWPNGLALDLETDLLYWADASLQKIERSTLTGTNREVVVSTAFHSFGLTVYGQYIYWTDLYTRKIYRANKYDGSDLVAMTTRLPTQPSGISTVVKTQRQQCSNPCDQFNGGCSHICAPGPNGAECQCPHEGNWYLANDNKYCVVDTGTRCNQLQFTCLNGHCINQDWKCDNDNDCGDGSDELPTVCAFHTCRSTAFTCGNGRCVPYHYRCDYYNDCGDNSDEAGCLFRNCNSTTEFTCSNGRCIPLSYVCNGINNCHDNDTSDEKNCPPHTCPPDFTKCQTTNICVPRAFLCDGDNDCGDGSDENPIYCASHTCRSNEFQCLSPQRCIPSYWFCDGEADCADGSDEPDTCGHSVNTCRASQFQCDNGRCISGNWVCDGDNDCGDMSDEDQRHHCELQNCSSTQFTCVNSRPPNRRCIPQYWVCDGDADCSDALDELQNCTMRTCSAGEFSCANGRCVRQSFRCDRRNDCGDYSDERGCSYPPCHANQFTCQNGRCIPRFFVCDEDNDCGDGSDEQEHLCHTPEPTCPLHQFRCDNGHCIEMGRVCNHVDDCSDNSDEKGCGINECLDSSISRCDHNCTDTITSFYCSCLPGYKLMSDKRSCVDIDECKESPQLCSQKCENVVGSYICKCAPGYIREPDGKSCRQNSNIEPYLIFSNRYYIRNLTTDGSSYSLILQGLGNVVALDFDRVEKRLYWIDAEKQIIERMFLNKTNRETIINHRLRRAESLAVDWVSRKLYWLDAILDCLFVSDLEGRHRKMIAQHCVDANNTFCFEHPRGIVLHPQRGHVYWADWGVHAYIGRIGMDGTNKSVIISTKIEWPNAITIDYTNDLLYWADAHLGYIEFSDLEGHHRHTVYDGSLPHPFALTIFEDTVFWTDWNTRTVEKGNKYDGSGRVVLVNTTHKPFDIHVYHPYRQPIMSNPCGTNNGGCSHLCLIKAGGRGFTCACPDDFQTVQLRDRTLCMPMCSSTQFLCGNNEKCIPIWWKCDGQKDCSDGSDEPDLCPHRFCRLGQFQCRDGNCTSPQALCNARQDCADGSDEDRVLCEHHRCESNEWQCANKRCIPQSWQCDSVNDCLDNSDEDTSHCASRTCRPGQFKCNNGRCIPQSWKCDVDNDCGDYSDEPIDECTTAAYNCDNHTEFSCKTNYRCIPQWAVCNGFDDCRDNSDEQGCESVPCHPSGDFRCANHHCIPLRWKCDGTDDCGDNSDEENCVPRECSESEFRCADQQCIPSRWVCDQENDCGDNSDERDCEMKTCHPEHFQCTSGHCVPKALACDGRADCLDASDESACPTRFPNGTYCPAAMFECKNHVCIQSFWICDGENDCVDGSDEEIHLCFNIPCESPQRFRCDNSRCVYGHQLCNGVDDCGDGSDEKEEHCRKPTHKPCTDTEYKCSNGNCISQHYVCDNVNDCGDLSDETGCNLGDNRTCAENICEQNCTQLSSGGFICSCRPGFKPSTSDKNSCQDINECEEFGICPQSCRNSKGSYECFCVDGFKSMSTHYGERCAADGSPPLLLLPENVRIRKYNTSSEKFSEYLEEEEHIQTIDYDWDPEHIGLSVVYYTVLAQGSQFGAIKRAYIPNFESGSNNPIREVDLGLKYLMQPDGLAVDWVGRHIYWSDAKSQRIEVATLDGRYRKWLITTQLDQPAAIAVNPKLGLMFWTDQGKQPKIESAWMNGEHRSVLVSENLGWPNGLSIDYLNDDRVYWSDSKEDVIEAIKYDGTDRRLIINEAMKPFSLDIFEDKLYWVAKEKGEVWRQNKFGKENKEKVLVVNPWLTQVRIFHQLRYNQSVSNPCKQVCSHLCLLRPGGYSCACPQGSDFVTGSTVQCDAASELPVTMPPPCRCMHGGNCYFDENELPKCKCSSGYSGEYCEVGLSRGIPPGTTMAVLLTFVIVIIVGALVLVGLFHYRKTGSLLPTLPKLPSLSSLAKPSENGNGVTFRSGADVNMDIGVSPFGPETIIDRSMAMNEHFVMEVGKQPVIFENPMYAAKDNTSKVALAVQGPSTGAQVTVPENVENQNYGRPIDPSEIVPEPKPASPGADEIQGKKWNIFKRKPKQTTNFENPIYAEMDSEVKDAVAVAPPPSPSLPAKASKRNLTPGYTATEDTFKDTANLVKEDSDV
Description: (§3) Binding specificity between megalin and each ligand (hemoglobin, α1M, Hx), and the possible binding inhibition by cilastatin were verified using the quartz crystal microbalance (QCM) method by reference to the method described in PTL 2.
(§4) For the ligands to be verified, hemoglobin (LifeSpan Biosciences Inc., Rat Hemoglobin Native Protein, LS-G11201) and Hx (Sino Biological Inc., Rat Hemopexin/HPX protein (His Tag 81025-R08H)) were used. […]
(§5) After each of the ligand- or BSA-immobilized quartz crystal sensor was mounted in the measurement instrument AFFINIX® Q8 (Initium Inc.) and the frequency was confirmed to be stable, 8 μL of a 0.1 mg/mL solution of megalin purified from Sprague-Dawley (SD) rat kidneys according to the method of Orlando et al. was injected and frequency was measured with time.
(§6) More specifically, the megalin solution was reacted to each of the ligand-immobilized quartz crystal sensors placed in a chamber with 200 μL of buffer, and frequency was measured.
(§7) Additionally, 1 mg of cilastatin was injected into buffer in advance, each of the ligand-immobilized quartz crystal sensors was mounted in the measurement instrument, and after the frequency was confirmed to be stable, the megalin solution was injected and frequency was measured with time, whereby the antagonistic activity of cilastatin against the binding of each ligand to megalin was analyzed. […]

[3] = target: binding between megalin and Hx (Rattus norvegicus, UniProt P98158); conditions: QCM, 1 mg cilastatin injected into 200 μL buffer in advance, rat Hx (FIG. 2-1)
Chain of binding between megalin and Hx (P98158 26-4660): as above
Description: as §3, §4, §5, §6, §7

hemolysis model mice [4] = conditions: cilastatin 400 mg/kg i.p. at 0, 3 and 6 h after phenylhydrazine, vs normal saline control group (FIG. 1)
Protocol: Phenylhydrazine (97% phenylhydrazine, Sigma-Aldrich Inc.) was dissolved in PBS in a concentration of 5 mg/ml to prepare a PBS solution, and the solution was intraperitoneally given to C57BL/6 mice (male, aged 10-12 weeks) so that the dose of phenylhydrazine was 1 mg/10 g, thereby constructing homolysis models.
as §2, with “μL” for “μL,”, “dosing. For each a) and b), 6 mice were used.” for “dosing.”
Then, for each individual in a) cilastatin-treated group and b) normal saline-treated group (control group), urine was pooled using a metabolic cage for 24 hours after phenylhydrazine dosing, and the obtained urine samples were collected.
The urine and serum were stored at −80° C. until analysis and measured for urinary KIM-1 and blood urea nitrogen. The measurements were conducted by Oriental Yeast Co., Ltd.

hemolysis model mice [5] = conditions: cilastatin 400 mg/kg i.p. at 0, 3 and 6 h after phenylhydrazine, kidneys at 24 h, immunostaining (FIG. 5)
Protocol: Twenty-four hours after phenylhydrazine dosing, a portion containing a renal pedicle was sliced to 3 mm thickness from the right kidney and fixed with 4% paraformaldehyde phosphate buffer.
as §1, §2

[6] = target: binding between α1M and megalin (Rattus norvegicus, UniProt P98158); conditions: QCM, 1 mg/200 μL cilastatin injected into buffer in advance, rat α1M (FIG. 2-2)
Chain of binding between α1M and megalin (P98158 26-4660): as above
Description: as §3

[7] = mice, 3 h urine pooled from 5 mice, LCMS

- binding of megalin to hemoglobin-immobilized quartz crystal sensor (drop of quartz crystal signals) [2]: inhibited
- binding of megalin to Hx-immobilized quartz crystal sensor (drop of quartz crystal signals) [3]: inhibited
- binding of α1M to megalin-immobilized quartz crystal sensor (drop of quartz crystal signals) [6]: inhibited
Structure (SMILES): CC1(C)C[C@@H]1C(=O)N/C(=C\CCCCSC[C@H](N)C(=O)O)C(=O)O [cilastatin, (Z)-7-[[(R)-2-Amino-2-carboxyethyl]thio]-2-[[[(S)-2,2-dimethylcyclopropyl]carbonyl]amino]-2-heptenoic acid]
- uptake of α1M and Hx into kidney tissues (mice (C57BL/6); concluded from higher urinary concentrations in the cilastatin-treated group): inhibits
- SpC/L ratio (cilastatin-treated group/control group), urinary Albumin (mice (C57BL/6); [7]): 1.10
- SpC/L ratio (cilastatin-treated group/control group), urinary Clusterin (mice (C57BL/6); [7]): 0.73
- SpC/L ratio (cilastatin-treated group/control group), urinary Hx (mice (C57BL/6); [7]): 2.33
- SpC/L ratio (cilastatin-treated group/control group), urinary Transcobalamin-2 (mice (C57BL/6); [7]): 2.33
- SpC/L ratio (cilastatin-treated group/control group), urinary Transthyretin (mice (C57BL/6); [7]): 1.00
- SpC/L ratio (cilastatin-treated group/control group), urinary Vitamin D-binding protein (mice (C57BL/6); [7]): 0.80
- SpC/L ratio (cilastatin-treated group/control group), urinary α1M (mice (C57BL/6); [7]): 3.67
- amounts of α1M taken up into kidney tissues (hemolysis model mice [1]): reduced
- urinary KIM-1 (hemolysis model mice [4]; 24 h pooled urine): lower in the cilastatin (CS)-treated group than the control group
- blood urea nitrogen (hemolysis model mice [4]; serum at 24 h): lower in the cilastatin (CS)-treated group than the control group
- amounts of hemoglobin taken up into kidney tissues (hemolysis model mice [5]): reduced
